Test results as given in patent publication US20240050577A1, “CDK INHIBITORS AND PHARMACEUTICAL USES THEREOF” (RISEN (SUZHOU) PHARMA TECH CO., LTD., priority 2022, published 2024).

System: OVCAR3 cells
Experiment: Cell proliferation study (Cell Titer Glo, 72 h)
Type: cell-based
Conditions: Homo sapiens, OVCAR-3, luminescence, read-out: IC50, inhibitory effect on cellular proliferation
Description: OVCAR3 (Cobioer, CBP60294) cell line in logarithmic growth phase was used for these experiments. The cell density was adjusted to 1.1×10^4/mL and the cells were inoculated into a 96-well cell culture plate (Corning, 3599), 95 μL per well (the number of cells per well was 1×10^3). The culture plate was placed in an incubator, with 5% carbon dioxide, at 37° C. and incubated overnight. On the next day, a 10 mM stock solution of test compound was prepared in DMSO (Sigma, RNBF5902). After gradient dilution, a series of working solutions with different concentrations of test compound was prepared using complete medium. Working solution was added into the corresponding wells of the orifice plate, and the plate was placed in a 5% carbon dioxide incubator and cultivated at 37° C. for 72 h, and then removed from the incubator. To each well was added 50 μL Cell Tier Glo (Promega, G7573), and the plate was incubated at room temperature for 10 min, followed by luminescence detection with an enzyme marker. The inhibition curve was obtained with GraphPad 7.0 software using four-parameter equation.

Row | SMILES | IC50 [nM]
1 | Cc1nc2c(F)cc(-c3nc(Nc4ccc(S(=O)(=O)C5CCN(CC6CCN(C7CN(c8cc9c(cc8F)C(=O)N(C8CCC(=O)NC8=O)C9=O)C7)CC6)CC5)cc4)ncc3F)cc2n1C(C)C (centres unmarked) [Compound 65] | 101 to 1000
2 | CC(C)N1CCOc2c(F)cc(-c3nc(Nc4ccc(C5CCN(CCCCCCCCCOc6cccc7c6C(=O)N(C6CCC(=O)NC6=O)C7=O)CC5)cn4)ncc3F)cc21 (centres unmarked) [Compound 1] | > 10000
3 | C[C@@]1(O)CCC[C@H]1n1c(=O)ccc2cnc(NC3CCN(S(=O)(=O)CCCCCCCCCOc4cccc5c4C(=O)N(C4CCC(=O)NC4=O)C5=O)CC3)nc21 (some centres unmarked) [Compound 92] | > 10000
4 | C[C@@]1(O)CCC[C@H]1n1c(=O)ccc2cnc(NC3CCN(S(=O)(=O)C4CCN(C5CCC6(CCN(c7cc8c(cc7F)C(=O)N(C7CCC(=O)NC7=O)C8=O)C6)C5)CC4)CC3)nc21 (some centres unmarked) [Compound 84] | 101 to 1000
5 | C[C@@]1(O)CCC[C@H]1n1c(=O)ccc2cnc(NC3CCN(S(=O)(=O)N4CCN(CC5CCN(c6cc7c(cc6F)C(=O)N(C6CCC(=O)NC6=O)C7=O)CC5)CC4)CC3)nc21 (some centres unmarked) [Compound 60] | 1000 to 5000
